According to patent publication US20040166178A1, “3-O-acetyl-11-ketoboswellic acid for relaxing the skin” (L'OREAL, priority 2003, published 2004):

Columns and labels:
[1] = tested on: human striated muscle cells innervated with explants of spinal cord and spinal ganglia from rat embryos; experiment: nerve-muscle coculture model, inhibition of muscle fibre contractions; format: cell-based; conditions: for contraction-inhibiting effect: test identical to Example 1
Protocol: Three extracts of Boswellia serrata were tested on a nerve-muscle coculture model which makes it possible to recreate a motor arc by innovating human striated muscle cells with explants of spinal cord and of spinal ganglia from rat embryos.
Human muscle cells derived from human muscle samples from a healthy donor are seeded in 15 mm-diameter wells (24-well culture dishes). After culturing for 10 days, these cells form a monolayer and fuse. At this stage, spinal cord explants from 13-day-old rat embryos, containing the spinal ganglion, are deposited onto the culture.
The first muscle fibre contractions are observed after coculturing for one week.
A muscle fibre having regular contractions (at least 60 contractions per minute) is then selected in three different culture wells and the number of contractions is counted over 30 seconds using image analysis software. The extracts tested, diluted in ethanol, are then incubated for 60 seconds in these wells, at the concentrations C1 and C2 of 0.005% and 0.01%. At the end of the incubation, the number of contractions is again counted over 30 seconds.
The percentage of inhibited contractions is then determined.

[2] = anti-wrinkle activity in vivo
calcium channels = experiment: model of calcium flux; format: cell-based; conditions: compared with beta-boswellic acid, 3-O-acetylboswellic acid and 11-ketoboswellic acid
Protocol: The four pentacyclic triterpene acids contained, according to the literature, in extract of Boswellia serrata, namely beta-boswellic acid, 3-O-acetylboswellic acid, 11-ketoboswellic acid and 3-O-acetyl-11-ketoboswellic acid, were tested in a model of calcium flux in order to evaluate their capacity for inhibiting calcium channels and therefore their ability to relax lines and smooth out expression lines.

SMILES	muscle fibre contractions ([1]; earlier demonstration by the applicant)	anti-wrinkle activity [2]	contraction-inhibiting effect ([1]; 5 μM) [%]	contraction-inhibiting effect ([1]; 10 μM) [%]	relaxing effect (capacity for inhibiting calcium channels) (calcium channels)
CN1C(=O)CN=C(c2ccccc2)c2cc(Cl)ccc21 [diazepam, reference compound]	inhibited muscle fibre contractions	demonstrated in vivo			
CC(=O)O[C@@H]1CC[C@@]2(C)[C@@H](CC[C@]3(C)[C@@H]2C(=O)C=C2[C@@H]4[C@@H](C)[C@H](C)CC[C@]4(C)CC[C@]23C)[C@@]1(C)C(=O)O [3-O-acetyl-11-ketoboswellic acid]			74.7	87	clearly greater than that obtained for the other three acids tested
